Entries after “also recorded” stand apart in the source; their conditions may differ.
Key:
[1] = biological target: T1, PPARδ (Homo sapiens, UniProt Q03181); assay: TR-FRET competitive binding assay PPARδ; conditions: concentration-response
T1 sequence (Q03181 1-441): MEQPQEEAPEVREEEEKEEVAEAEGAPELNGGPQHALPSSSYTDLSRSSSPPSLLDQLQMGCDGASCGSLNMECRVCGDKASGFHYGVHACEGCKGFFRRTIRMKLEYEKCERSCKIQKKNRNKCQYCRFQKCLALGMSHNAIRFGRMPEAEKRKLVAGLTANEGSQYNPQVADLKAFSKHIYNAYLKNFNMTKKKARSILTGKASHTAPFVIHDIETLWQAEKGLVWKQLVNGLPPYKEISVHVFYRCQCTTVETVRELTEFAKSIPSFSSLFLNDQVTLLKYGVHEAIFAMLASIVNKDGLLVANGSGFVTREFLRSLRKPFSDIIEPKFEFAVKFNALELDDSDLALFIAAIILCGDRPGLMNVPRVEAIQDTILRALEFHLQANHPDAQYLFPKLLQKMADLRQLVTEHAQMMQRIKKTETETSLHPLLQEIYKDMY

[2] = system: ANGPTL4 and PDK4 gene transcription; assay: Q-RT-PCR of ANGPTL4 and PDK4 mRNA in hBM-MSCs; format: cell-based, human; conditions: 3rd day after induction of adipogenesis
[3] = biological target: T2, PPARδ (Homo sapiens, UniProt Q03181); assay: TR-FRET PPARδ corepressor assay; format: biochemical; conditions: SMRT-ID2 peptide
T2 sequence (Q03181 211-439 limits assumed): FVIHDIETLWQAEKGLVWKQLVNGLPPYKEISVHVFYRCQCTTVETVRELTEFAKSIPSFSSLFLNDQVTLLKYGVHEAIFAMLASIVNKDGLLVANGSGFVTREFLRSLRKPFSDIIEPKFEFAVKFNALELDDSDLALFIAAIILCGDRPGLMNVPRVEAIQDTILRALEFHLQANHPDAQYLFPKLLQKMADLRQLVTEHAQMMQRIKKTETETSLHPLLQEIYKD

[4] = biological target: T2, PPARδ; assay: TR-FRET PPARδ coactivator assay; format: biochemical; conditions: compound alone
[5] = biological target: T3, PPARγ (Homo sapiens, UniProt P37231); assay: luciferase-reporter PPARγ transactivation assay in CV-1 cells; format: cell-based; conditions: 30 µM
T3 sequence (P37231 1-505): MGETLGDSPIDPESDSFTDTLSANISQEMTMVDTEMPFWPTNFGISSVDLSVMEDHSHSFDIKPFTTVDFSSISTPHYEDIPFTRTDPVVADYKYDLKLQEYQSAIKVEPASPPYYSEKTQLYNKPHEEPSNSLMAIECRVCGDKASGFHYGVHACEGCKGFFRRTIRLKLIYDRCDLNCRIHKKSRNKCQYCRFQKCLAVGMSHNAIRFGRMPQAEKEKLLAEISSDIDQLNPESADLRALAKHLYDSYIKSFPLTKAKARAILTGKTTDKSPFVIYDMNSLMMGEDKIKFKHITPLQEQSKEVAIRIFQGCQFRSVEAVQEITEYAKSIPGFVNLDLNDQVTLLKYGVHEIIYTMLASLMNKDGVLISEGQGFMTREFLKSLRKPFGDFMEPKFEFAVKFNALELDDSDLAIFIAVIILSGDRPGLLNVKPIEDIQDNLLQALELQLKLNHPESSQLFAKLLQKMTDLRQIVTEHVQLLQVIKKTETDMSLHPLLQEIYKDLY

[6] = system: STZ-induced diabetic C57BL/6J mice; assay: STZ-induced diabetes mouse model; format: in vivo; conditions: oral 20 mg/kg for 5 days, male C57BL/6J
[7] = biological target: T4, PPARα (Homo sapiens, UniProt Q07869); assay: TR-FRET competitive binding assay PPARα; conditions: up to 20 µM
T4 sequence (Q07869 200-468 limits assumed): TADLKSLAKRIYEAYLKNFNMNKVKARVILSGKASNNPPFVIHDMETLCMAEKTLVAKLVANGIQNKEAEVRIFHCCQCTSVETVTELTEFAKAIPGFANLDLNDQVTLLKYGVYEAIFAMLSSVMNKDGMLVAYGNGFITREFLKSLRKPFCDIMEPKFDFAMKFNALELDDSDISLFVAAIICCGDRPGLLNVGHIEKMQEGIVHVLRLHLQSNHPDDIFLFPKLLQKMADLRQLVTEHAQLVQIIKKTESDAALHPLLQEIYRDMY

[8] = biological target: T5, PPARγ (Homo sapiens, UniProt P37231); assay: TR-FRET competitive binding assay PPARγ; conditions: concentration-response
T5 sequence (P37231 235-505 limits assumed): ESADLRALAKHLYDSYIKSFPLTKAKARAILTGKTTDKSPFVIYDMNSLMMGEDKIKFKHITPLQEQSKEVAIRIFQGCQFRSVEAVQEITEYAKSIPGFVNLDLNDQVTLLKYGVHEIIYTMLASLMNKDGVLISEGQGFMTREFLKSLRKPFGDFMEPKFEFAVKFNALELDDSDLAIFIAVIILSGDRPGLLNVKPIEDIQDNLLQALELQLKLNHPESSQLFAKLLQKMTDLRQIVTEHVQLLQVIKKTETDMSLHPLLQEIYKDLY

[9] = system: hBM-MSCs; assay: adiponectin production during adipogenesis in hBM-MSCs; conditions: 20 µM

Q: For `O[C@@H]1[C@H](O)CS[C@H]1n1cnc2c(NCc3cccc(I)c3)nc(Cl)nc21` [Compound 3a, (2R,3R,4S)-2-(2-Chloro-6-((3-iodobenzyl)amino)-9H-purin-9-yl)tetrahydrothiophene-3,4-diol], which “PPARδ binding activity” value [1] is on record?
A: The value was “maximal PPARδ binding activity”.

Q: And the “ANGPTL4 mRNA level” value [2]?
A: The value was “did not affect ANGPTL4 and PDK4 mRNA levels”.

Q: And the “PDK4 mRNA level” value [2]?
A: Its value is “did not affect ANGPTL4 and PDK4 mRNA levels”.

Q: What about the “interaction between PPARδ and corepressor peptide” value [3] of the same compound?
A: The value was “promotion of the interaction between PPARδ and corepressor peptide”.

Q: And the “recruitment of labeled coactivator peptide to PPARδ” value [4]?
A: Its value is “no effect on the recruitment of the labeled coactivator peptide”.

Q: What about the “PPARγ transactivation compared to troglitazone” value [5] of the same compound?
A: Its value is “did not achieve maximal PPARγ transactivation activity”.

Q: What about the “serum lactate levels” value [6] of the same compound?
A: The value was “tended to decrease the serum lactate levels”.

Q: And the “serum triglyceride levels” value [6]?
A: The value was “downregulated serum triglyceride levels”.

Q: And the “serum glucose levels” value ([6]; 20 mg/kg)?
A: Its value is “significantly decreased serum glucose levels; also recorded: dose-dependent”.

Q: What about the “replacement of labeled PPARα ligand binding” value [7] of the same compound?
A: The value was at most 50%.

Q: What about the “PPARγ binding activity” value [8] of the same compound?
A: Its value is “significant competitive binding activity”.

Q: What about the “rank as promoter of adipogenesis among tested A3 AR agonists and antagonists” value [9] of the same compound?
A: Its value is “most potent promoter of adipogenesis”.

From paper PMC5956890 (Journal of medicinal chemistry, 2017)
